Laboratory results taken from publication PMC7026418, “The kinase polypharmacology landscape of clinical PARP inhibitors” (Scientific Reports, 2020).
Read-outs that look alike come from different tables or passages of the source. Blank lines part the entries; values can stand above or below the molecule they belong to.

Tests used:
Test in all cases: biochemical
Parameters in all cases: DiscoveRx KINOMEscan active site-directed competition binding; percent of control kinase bound to immobilised ligand
ALK(C1156Y) = ALK(C1156Y) (Homo sapiens, UniProt Q9UM73, C1156Y)
Chain of ALK(C1156Y) (Q9UM73 whole entry C1156Y): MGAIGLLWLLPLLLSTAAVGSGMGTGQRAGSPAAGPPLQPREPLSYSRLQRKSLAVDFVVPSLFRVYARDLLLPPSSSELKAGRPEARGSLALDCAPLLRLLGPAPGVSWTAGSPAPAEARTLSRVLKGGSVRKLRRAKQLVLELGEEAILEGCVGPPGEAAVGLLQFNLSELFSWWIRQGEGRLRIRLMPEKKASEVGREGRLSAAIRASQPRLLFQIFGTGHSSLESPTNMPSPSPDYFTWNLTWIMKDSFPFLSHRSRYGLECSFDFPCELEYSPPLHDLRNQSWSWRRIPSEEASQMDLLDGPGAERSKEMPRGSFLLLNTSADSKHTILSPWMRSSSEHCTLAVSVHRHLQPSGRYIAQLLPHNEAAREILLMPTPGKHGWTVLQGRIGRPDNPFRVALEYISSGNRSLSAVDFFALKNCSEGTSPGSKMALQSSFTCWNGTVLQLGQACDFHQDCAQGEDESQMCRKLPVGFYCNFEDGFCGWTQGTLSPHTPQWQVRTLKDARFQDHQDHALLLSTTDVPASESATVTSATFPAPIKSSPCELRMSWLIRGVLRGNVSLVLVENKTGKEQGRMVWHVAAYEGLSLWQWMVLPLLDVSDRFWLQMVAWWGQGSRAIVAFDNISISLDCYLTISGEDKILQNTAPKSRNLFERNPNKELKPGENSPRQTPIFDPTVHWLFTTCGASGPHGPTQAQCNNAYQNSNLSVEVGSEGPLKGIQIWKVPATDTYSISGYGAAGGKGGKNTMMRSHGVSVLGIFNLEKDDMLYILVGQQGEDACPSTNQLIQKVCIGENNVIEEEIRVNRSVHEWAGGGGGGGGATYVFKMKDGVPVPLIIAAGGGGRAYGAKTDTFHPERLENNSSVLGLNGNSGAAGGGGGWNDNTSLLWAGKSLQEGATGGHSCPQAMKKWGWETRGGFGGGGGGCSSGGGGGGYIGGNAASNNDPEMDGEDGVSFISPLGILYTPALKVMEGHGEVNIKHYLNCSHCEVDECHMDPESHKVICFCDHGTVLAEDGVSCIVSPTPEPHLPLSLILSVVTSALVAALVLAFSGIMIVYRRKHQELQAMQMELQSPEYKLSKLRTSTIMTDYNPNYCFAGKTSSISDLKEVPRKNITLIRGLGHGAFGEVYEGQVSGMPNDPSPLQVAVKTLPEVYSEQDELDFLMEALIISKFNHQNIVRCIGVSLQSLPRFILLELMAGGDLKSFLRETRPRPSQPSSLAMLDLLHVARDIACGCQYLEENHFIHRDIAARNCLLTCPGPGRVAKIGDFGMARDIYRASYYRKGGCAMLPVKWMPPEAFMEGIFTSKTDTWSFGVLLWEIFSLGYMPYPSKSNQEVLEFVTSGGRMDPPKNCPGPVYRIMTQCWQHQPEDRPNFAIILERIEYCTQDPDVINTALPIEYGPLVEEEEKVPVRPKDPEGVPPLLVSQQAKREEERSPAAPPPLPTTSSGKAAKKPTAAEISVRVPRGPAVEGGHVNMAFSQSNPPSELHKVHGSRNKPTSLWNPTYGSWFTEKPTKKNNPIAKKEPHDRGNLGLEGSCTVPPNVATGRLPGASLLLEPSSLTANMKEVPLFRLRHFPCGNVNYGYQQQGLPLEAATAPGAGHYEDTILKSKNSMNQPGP

CAMK1G = CAMK1G (Homo sapiens, UniProt Q96NX5)
Chain of CAMK1G (Q96NX5 whole entry): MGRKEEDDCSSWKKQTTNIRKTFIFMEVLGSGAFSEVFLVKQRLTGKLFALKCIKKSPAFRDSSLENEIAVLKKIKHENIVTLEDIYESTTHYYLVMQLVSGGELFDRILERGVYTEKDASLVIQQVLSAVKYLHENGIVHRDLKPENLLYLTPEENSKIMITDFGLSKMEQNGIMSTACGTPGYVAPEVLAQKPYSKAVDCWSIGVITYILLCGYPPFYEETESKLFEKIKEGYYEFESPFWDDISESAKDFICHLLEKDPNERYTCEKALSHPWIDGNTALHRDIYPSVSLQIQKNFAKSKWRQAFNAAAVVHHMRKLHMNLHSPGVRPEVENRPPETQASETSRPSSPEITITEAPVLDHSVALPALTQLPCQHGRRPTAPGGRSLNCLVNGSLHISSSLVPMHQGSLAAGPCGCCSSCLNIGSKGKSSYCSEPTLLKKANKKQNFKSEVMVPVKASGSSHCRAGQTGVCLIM

CASK = biological target: T1, CASK (Homo sapiens, UniProt O14936)
T1 sequence (O14936 1-926): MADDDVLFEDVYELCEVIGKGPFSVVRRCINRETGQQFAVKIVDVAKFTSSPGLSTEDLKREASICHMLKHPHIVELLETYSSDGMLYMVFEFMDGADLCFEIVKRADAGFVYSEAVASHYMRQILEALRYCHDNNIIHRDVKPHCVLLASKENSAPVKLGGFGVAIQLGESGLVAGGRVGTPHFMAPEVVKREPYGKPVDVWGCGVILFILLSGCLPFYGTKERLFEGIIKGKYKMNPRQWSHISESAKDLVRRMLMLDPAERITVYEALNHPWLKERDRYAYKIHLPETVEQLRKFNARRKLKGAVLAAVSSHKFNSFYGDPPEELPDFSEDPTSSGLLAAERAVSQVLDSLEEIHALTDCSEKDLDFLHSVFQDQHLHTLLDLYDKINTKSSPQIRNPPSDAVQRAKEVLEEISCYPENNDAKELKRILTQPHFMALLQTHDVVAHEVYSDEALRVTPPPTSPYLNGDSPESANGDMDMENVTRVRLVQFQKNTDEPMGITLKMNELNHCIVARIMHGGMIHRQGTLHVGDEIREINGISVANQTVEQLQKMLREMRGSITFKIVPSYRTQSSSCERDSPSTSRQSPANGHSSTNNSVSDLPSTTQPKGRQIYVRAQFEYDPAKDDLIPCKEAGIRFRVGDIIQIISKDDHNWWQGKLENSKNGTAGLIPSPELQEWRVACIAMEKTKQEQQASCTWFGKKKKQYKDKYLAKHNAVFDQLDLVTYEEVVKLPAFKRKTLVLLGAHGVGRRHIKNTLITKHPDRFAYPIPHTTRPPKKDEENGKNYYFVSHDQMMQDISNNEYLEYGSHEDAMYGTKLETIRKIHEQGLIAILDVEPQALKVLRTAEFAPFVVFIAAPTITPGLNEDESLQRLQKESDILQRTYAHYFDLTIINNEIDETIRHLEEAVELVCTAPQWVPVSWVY

DAPK2 = DAPK2 (Homo sapiens, UniProt Q9UIK4)
Chain of DAPK2 (Q9UIK4 whole entry): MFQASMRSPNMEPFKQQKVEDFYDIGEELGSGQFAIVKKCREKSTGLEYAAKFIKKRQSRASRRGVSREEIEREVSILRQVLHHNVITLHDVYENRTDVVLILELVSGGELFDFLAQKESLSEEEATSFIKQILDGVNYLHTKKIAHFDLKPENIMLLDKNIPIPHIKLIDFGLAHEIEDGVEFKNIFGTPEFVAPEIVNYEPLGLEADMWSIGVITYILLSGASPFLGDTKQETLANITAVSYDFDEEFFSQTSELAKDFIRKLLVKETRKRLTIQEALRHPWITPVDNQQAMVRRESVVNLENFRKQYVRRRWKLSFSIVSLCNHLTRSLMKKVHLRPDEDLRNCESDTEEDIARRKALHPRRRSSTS

NEK5 = biological target: T2, NEK5 (Homo sapiens, UniProt Q6P3R8)
T2 sequence (Q6P3R8 1-708): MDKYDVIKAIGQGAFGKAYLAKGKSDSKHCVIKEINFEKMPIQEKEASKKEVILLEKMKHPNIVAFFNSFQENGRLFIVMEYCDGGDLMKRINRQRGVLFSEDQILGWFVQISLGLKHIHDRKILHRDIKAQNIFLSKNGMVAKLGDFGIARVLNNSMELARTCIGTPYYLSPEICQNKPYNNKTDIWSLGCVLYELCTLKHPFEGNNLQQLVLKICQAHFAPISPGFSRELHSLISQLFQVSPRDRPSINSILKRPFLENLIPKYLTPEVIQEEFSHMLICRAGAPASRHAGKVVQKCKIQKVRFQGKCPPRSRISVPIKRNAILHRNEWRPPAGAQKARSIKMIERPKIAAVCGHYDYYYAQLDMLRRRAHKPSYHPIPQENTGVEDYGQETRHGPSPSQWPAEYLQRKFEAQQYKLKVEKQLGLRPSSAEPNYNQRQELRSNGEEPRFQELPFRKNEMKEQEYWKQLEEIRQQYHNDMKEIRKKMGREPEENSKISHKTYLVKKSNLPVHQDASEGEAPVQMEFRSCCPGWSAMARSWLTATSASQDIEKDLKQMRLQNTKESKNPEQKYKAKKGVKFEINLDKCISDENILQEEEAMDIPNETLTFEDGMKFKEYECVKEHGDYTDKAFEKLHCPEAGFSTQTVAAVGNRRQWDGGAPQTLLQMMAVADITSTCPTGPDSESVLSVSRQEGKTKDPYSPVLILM

PAK4 = PAK4 (Homo sapiens, UniProt O96013)
Chain of PAK4 (O96013 whole entry): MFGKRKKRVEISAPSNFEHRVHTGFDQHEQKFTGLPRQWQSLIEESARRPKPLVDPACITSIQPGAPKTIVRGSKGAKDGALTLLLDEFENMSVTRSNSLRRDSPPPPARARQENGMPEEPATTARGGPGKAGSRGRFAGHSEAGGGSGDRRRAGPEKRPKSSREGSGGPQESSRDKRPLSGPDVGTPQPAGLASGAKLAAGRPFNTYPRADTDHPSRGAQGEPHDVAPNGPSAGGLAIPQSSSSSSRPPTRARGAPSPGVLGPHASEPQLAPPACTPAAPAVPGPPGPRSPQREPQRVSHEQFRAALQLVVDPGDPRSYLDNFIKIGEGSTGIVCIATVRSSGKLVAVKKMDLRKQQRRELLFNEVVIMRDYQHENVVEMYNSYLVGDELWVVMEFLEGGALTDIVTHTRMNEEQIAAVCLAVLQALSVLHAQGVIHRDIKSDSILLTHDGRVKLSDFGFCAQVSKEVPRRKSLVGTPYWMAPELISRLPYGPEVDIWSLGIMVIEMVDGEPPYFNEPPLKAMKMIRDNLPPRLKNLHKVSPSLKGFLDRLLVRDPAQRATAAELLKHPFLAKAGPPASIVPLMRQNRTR

S6K1 = biological target: T3, S6K1 (Homo sapiens, UniProt P23443)
T3 construct: gene RPS6KB1
T3 sequence (P23443 whole entry): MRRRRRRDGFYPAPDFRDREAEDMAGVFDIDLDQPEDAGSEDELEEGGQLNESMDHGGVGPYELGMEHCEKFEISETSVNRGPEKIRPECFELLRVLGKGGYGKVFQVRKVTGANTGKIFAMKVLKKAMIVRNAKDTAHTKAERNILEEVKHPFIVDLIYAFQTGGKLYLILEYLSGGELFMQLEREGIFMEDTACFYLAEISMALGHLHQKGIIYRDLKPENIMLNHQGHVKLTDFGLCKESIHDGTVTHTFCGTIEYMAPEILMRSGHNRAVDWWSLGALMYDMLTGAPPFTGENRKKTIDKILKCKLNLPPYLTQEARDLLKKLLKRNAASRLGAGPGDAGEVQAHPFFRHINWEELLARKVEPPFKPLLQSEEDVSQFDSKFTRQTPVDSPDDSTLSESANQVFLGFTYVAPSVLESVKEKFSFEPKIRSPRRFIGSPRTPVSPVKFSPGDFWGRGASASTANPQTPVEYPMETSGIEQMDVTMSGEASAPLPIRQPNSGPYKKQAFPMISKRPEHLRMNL

[1] = read-out: Niraparib (MK-4827) / %Ctrl @ 10000nM
[2] = read-out: Olaparib / %Ctrl @ 10000nM
[3] = read-out: Rucaparib / %Ctrl @ 10000nM, binding competition, % of control
[4] = read-out: Talazoparib (BMN 673) / %Ctrl @ 10000nM

SMILES: NC(=O)c1cccc2cn(-c3ccc([C@@H]4CCCNC4)cc3)nc12 [Niraparib]
percent of control binding at 10 µM (ALK(C1156Y); [1]): 88%
percent of control binding at 10 µM (CAMK1G; [1]): 100%
percent of control binding at 10 µM (CASK; [1]): 93%
percent of control binding at 10 µM (DAPK2; [1]): 81%
percent of control binding at 10 µM (NEK5; [1]): 89%
percent of control binding at 10 µM (PAK4; [1]): 88%
percent of control binding at 10 µM (S6K1; [1]): 94%

percent of control binding at 10 µM (ALK(C1156Y); [2]): 88%
percent of control binding at 10 µM (CAMK1G; [2]): 93%
percent of control binding at 10 µM (CASK; [2]): 78%
percent of control binding at 10 µM (DAPK2; [2]): 100%
percent of control binding at 10 µM (NEK5; [2]): 96%
percent of control binding at 10 µM (PAK4; [2]): 100%
percent of control binding at 10 µM (S6K1; [2]): 73%
SMILES: O=C(c1cc(Cc2n[nH]c(=O)c3ccccc23)ccc1F)N1CCN(C(=O)C2CC2)CC1 [Olaparib]

percent of control binding at 10 µM (ALK(C1156Y); [3]): 43%
percent of control binding at 10 µM (CAMK1G; [3]): 89%
percent of control binding at 10 µM (CASK; [3]): 83%
percent of control binding at 10 µM (DAPK2; [3]): 37%
percent of control binding at 10 µM (NEK5; [3]): 87%
percent of control binding at 10 µM (PAK4; [3]): 80%
percent of control binding at 10 µM (S6K1; [3]): 60%
SMILES: CNCc1ccc(-c2[nH]c3cc(F)cc4c3c2CCNC4=O)cc1 [Rucaparib]

percent of control binding at 10 µM (ALK(C1156Y); [4]): 100%
percent of control binding at 10 µM (CAMK1G; [4]): 100%
percent of control binding at 10 µM (CASK; [4]): 79%
percent of control binding at 10 µM (DAPK2; [4]): 95%
percent of control binding at 10 µM (NEK5; [4]): 97%
percent of control binding at 10 µM (PAK4; [4]): 89%
percent of control binding at 10 µM (S6K1; [4]): 62%
SMILES: Cn1ncnc1[C@H]1c2n[nH]c(=O)c3cc(F)cc(c23)N[C@@H]1c1ccc(F)cc1 [Talazoparib]
